Assays:
carrageenan foot edema = assay: Rat Carrageenan Foot Pad Edema Test; type: in vivo, Male Sprague-Dawley rats; conditions: @ 30mg/kg body weight; dosed orally one hour before carrageenan; foot volume three hours after injection
[1] = Analgesia (Table I; method not described); type: in vivo; conditions: @ 30mg/kg body weight
COX-1 = COX-1 (Homo sapiens, UniProt P23219); type: biochemical, human or murine
COX-1, sequence (P23219 24-599): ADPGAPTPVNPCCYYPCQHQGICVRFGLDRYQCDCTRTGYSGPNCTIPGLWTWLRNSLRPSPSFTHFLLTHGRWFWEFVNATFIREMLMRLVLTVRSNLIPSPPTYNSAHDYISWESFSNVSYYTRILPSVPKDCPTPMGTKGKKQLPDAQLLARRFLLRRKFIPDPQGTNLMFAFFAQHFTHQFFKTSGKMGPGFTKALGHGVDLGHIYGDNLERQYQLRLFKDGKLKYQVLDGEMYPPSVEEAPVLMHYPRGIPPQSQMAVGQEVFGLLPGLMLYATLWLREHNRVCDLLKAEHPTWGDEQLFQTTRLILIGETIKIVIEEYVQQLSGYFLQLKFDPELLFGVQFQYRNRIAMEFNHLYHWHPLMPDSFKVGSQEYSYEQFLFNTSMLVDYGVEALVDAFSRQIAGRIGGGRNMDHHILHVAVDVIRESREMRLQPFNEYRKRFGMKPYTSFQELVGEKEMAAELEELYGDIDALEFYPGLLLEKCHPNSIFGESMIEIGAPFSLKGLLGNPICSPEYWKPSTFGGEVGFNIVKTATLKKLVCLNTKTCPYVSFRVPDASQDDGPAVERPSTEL

| Structure (SMILES) | RAT PAW EDEMA % Inhibition (carrageenan foot edema) | ANALGESIA % Inhibition [1] | IC50 (COX-1) |
| --- | --- | --- | --- |
| CS(=O)(=O)c1ccc(-n2cccc2-c2ccc(F)cc2)cc1 [Example 8, 2-(4-Fluorophenyl)-1-[4-(methylsulfonyl)phenyl]-1H-pyrrole] | 56% | 47% | – |
| NS(=O)(=O)c1ccc(-n2cccc2-c2ccc(F)cc2)cc1 [Example 9, 4-[2-(4-Fluorophenyl)-1H-pyrrol-1-yl]benzenesulfonamide] | – | – | 10.4 µM |

— patent EP1369415A1, “Substituted pyrrolyl compounds for the treatment of inflammation” (G.D. SEARLE & CO., priority 1996, dated 1998)
